Where “and” joins values, the source holds several entries; their conditions need not be identical. Equal entries are not always repeated. Where two headings read alike, the source gives them in different places.
Key:
[1] = test system: conventional in vitro genotoxicity assays; conditions: cited from earlier work
[2] = test system: C10orf65/HOGA1; assay: Gene expression of C10orf65/HOGA1 in HepG2 cells exposed to compound (microarray, log2 treatment:control ratio); format: cell-based, human; conditions: for C10orf65/HOGA1: expression versus reference value, single measurement of three
[3] = test system: rodents; conditions: cited from earlier work
[4] = test system: Salmonella typhimurium; conditions: cited from earlier work
[5] = test system: SLC40A1; assay: Gene expression of SLC40A1 in HepG2 cells exposed to compound (microarray, log2 treatment:control ratio); format: cell-based, human
[6] = test system: HepG2 cell
[7] = test system: PNMA6A; assay: Gene expression of PNMA6A in HepG2 cells exposed to compound (microarray, log2 treatment:control ratio); format: cell-based, human
[8] = HepG2 cells, expression versus reference value, single measurement of three
[9] = standard in vivo genotoxicity designation
[10] = HepG2 cells, 24 h exposure, Ames negative compounds, one line per replicate of triplicate experiments

| Compound | In vitro GTX [1] | C10orf65/HOGA1 [2] | In vivo GTX ([3]; in vivo) | Standard ([3]; in vivo) | SLC40A1 [5, 8] | PNMA6A [7, 8] | other results |
| --- | --- | --- | --- | --- | --- | --- | --- |
| CC(=O)Nc1ccc(O)cc1 [APAP] | + | − (below the reference value) | + | GTX | − (below the reference value) |  | Ames ([4]; Ames results based on NTP data): − |
| c1ccc2c(c1)cc1ccc3cccc4ccc2c1c34 [BaP] | + |  | + |  |  |  |  |
| ClC(Cl)(Cl)Cl [CCI4] |  |  |  |  | − (below the reference value) |  | Standard [3, 9]: NGTX |
| CN(C)N=O [DMN] | + |  | + |  |  |  | Standard (in vivo genotoxicity designation) ([3]; in vivo): GTX; Ames [4]: +; Average result over three measurements [6]: GTX; Prediction (class prediction results using the method of the invention) [6]: GTX+ |
| O=C(O)Cc1ccccc1Nc1c(Cl)cccc1Cl [Diclo] |  | − (below the reference value) |  | NGTX | − (below the reference value) |  |  |
| ClC1C(Cl)C(Cl)C(Cl)C(Cl)C1Cl (stereo not shown) [HCH] |  | − (below the reference value) |  | NGTX | + (above the reference value) | − (below the reference value) | Log2 treatment: control ratio C10orf65/HOGA1 ([2]; 24 h exposure, Ames negative compounds, one line per replicate of triplicate experiments): −0.367 and −0.143 and −0.165; Log2 treatment: control ratio PNMA6A [7, 10]: −0.604 and −0.2 and 0.012; Log2 treatment: control ratio SLC40A1 [5, 10]: 0.334 and 0.924 and 0.712; At least ⅔ genes +? [6]: NGTX; Average result over three measurements [6]: NGTX; Prediction (class prediction results using the method of the invention) [6]: NGTX |
| CO[C@@]12[C@H](COC(N)=O)C3=C(C(=O)C(C)=C(N)C3=O)N1C[C@@H]1N[C@@H]12 [MMC] |  |  | + |  |  |  |  |
| O=[N+]([O-])c1ccccc1 [NBZ] | − |  | − | NGTX | − (below the reference value) |  |  |
| Oc1c(Cl)c(Cl)c(Cl)c(Cl)c1Cl [PCP] |  | − (below the reference value) |  |  |  | − (below the reference value) | Standard [3, 9]: NGTX |
| Oc1ccccc1 [Ph, Phenol] | + |  | + | GTX |  |  | Ames [4]: −; PNMA6A [7]: + (key: +: above the reference value; −: below the reference value); SLC40A1 [5]: + (key: +: above the reference value; −: below the reference value); At least ⅔ genes +? [6]: GTX; Average result over three measurements [6]: GTX; Prediction (class prediction results using the method of the invention) [6]: GTX |
| CC(=O)[C@H]1CC[C@H]2[C@@H]3CCC4=CC(=O)CC[C@]4(C)[C@H]3CC[C@]12C [Prog] |  |  | − | NGTX | − (below the reference value) | − (below the reference value) |  |
| Cc1noc(NS(=O)(=O)c2ccc(N)cc2)c1C [Sulfi] |  | − (below the reference value) | − | NGTX |  | − (below the reference value) |  |
| O=C1O[C@H]([C@@H](O)CO)C(O)=C1O [VitC] |  | + (above the reference value) |  |  |  | + (above the reference value) | In vivo GTX ([3]; positive when at least one in vivo assay (MN, CA) positive, equivocal considered positive): +; Standard [3, 9]: GTX; At least ⅔ genes +? [6]: GTX; Average result over three measurements [6]: GTX; Prediction (class prediction results using the method of the invention) [6]: GTX |
| CC1(C)S[C@@H]2[C@H](NC(=O)[C@H](N)c3ccccc3)C(=O)N2[C@H]1C(=O)O.O.O.O [ampC] |  | − (below the reference value) |  |  | − (below the reference value) |  | Standard [3, 9]: NGTX |
| Cl[C@H]1[C@H](Cl)[C@@H](Cl)[C@@H](Cl)[C@H](Cl)[C@H]1Cl [γ-HCH] | − |  | − |  |  |  | Ames [4]: − |
